Assay results as given in patent US20160130278A1 (TAISHO PHARMACEUTICAL CO., LTD, priority 2013, published 2016).

What follows are compounds tested against T1, human type 1 glycine transporter (GlyT1) (Homo sapiens, UniProt P48067) (assay: Glycine uptake inhibition experiment ([3H]glycine uptake)). Details: GlyT1.
T1 construct: T98G cells (glioma cells) expressing human type 1 glycine transporter (GlyT1) were used
T1 sequence (P48067 1-706): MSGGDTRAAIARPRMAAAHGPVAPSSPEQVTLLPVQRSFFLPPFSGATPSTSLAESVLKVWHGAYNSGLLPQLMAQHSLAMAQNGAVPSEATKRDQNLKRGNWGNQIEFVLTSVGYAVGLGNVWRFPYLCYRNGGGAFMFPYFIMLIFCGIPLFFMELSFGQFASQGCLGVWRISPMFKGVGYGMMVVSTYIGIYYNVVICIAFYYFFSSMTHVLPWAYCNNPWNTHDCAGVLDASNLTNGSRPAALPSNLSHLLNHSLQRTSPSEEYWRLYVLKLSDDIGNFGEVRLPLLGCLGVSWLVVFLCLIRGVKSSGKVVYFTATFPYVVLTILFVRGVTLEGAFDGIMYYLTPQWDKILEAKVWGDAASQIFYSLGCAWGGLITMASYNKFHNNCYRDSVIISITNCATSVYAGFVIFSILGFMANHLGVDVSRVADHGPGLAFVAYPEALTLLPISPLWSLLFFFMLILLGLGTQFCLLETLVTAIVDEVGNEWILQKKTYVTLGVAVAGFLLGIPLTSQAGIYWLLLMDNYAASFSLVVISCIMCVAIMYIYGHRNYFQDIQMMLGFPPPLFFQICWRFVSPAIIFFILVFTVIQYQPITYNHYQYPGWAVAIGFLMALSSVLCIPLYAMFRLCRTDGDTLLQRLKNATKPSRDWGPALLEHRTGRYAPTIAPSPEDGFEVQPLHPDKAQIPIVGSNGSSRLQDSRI
Assay type: cell-based
Procedure: Glycine Uptake Inhibition Experiment
A glycine uptake experiment was conducted in accordance with the method published in Neuron, 8, 927-935, 1992. In the experiment, T98G cells (glioma cells) expressing human type 1 glycine transporter (GlyT1) were used. The T98G cells were seeded in a 96-well plate at 2.0×10^4 cells/well and cultured overnight in a CO2 incubator. The test substance was dissolved in a 100% DMSO solution and then dissolved in a 10 mM HEPES buffer solution (pH 7.4) containing 150 mM sodium chloride, 1 mM calcium chloride, 5 mM potassium chloride, 1 mM magnesium chloride, 10 mM glucose and 0.2% bovine serum albumin. After removing the cell culture medium, the test substance was subjected to a 10-min pretreatment. Subsequently, the test substance and [^3H] glycine (final concentration: 250 nM) were added to the cells and reaction was performed at room temperature for 15 minutes. After the end of the reaction, the extracellular fluid was aspirated with a manifold to remove excess labeled glycine present outside the cells, and then the cells were lysed with a 0.5 M aqueous sodium hydroxide solution. The glycine content in the cells was determined by measuring the radioactivity in the cell lysate with a liquid scintillation counter. Glycine uptake in the presence of 10 μM ALX5407 was defined as non-specific uptake, and the value calculated by subtracting the amount of the non-specific uptake from the total uptake in the absence of 10 μM ALX5407 was defined as specific uptake. In addition, glycine uptake inhibitory activity (IC50 value) was calculated from an inhibition curve at the concentrations of each test substance ranging from 10^−9 to 10^−5 M. It should be noted that ALX5407 is an HCl salt of N-[(3R)-3-([1,1′-biphenyl]-4-yloxy)-3-(4-fluorophenyl)propyl]-N-methylglycine.

Row | SMILES | IC50
1 | CCn1cc(-c2cccc(C(NC(=O)c3cccc(Cl)c3C)C3(O)CCC(F)(F)CC3)c2)cn1 (stereo not shown) [Compound 124, 3-chloro-N-{(4,4-difluoro-1-hydroxycyclohexyl)[3-(1-ethyl-1H-pyrazol-4-yl)phenyl]methyl}-2-methylbenzamide] | 310 nM
2 | Cc1ccccc1C(=O)NC(c1cccc(F)c1Cl)[C@]1(O)CC[C@@H](F)CC1 (single isomer, unassigned) [Compound 267, N-[(2-chloro-3-fluorophenyl)(cis-4-fluoro-1-hydroxycyclohexyl)methyl]-2-methylbenzamide] | 1900 nM
3 | Cc1ccc(-c2ncccn2)c(C(=O)NC(c2cccc(F)c2Cl)[C@]2(O)CC[C@@H](F)CC2)n1 (single isomer, unassigned) [Compound 284, N-[(2-chloro-3-fluorophenyl)(cis-4-fluoro-1-hydroxycyclohexyl)methyl]-6-methyl-3-(pyrimidin-2-yl)pyridine-2-carboxamide] | 1900 nM
4 | CCn1cc(-c2cccc(C(NC(=O)c3ccc(Cl)cc3Cl)C3(O)CCC(F)(F)CC3)c2)cn1 (stereo not shown) [Compound 191, 2,4-dichloro-N-{(4,4-difluoro-1-hydroxycyclohexyl)[3-(1-ethyl-1H-pyrazol-4-yl)phenyl]methyl}benzamide] | 1300 nM
5 | CCn1cc(-c2cccc(C(NC(=O)c3c(Cl)cc(Cl)cc3Cl)C3(O)CCC(F)(F)CC3)c2)cn1 (stereo not shown) [Compound 176, 2,4,6-trichloro-N-{(4,4-difluoro-1-hydroxycyclohexyl)[3-(1-ethyl-1H-pyrazol-4-yl)phenyl]methyl}benzamide] | 1000 nM
6 | O=C(NC(c1cccc(F)c1Cl)[C@]1(O)CC[C@@H](F)CC1)c1cnnc2ccccc12 (single isomer, unassigned) [Compound 259, N-[(2-chloro-3-fluorophenyl)(cis-4-fluoro-1-hydroxycyclohexyl)methyl]cinnoline-4-carboxamide] | 1000 nM
7 | N#Cc1cccc(C(NC(=O)c2cccc(C(F)(F)F)c2Cl)C2(O)CCCC2)c1 (stereo not shown) [Compound 8, 2-chloro-N-[(3-cyanophenyl)(1-hydroxycyclopentyl)methyl]-3-(trifluoromethyl)benzamide] | 400 nM
8 | CCn1cc(-c2cccc(C(NC(=O)c3c(Cl)ccc(OC)c3F)C3(O)CCC(F)(F)CC3)c2)cn1 (stereo not shown) [Compound 183, 6-chloro-N-{(4,4-difluoro-1-hydroxycyclohexyl)[3-(1-ethyl-1H-pyrazol-4-yl)phenyl]methyl}-2-fluoro-3-methoxybenzamide] | 2000 nM
9 | O=C(NC(c1cccc(Cl)c1F)C1(O)CCC(F)(F)CC1)c1nc(C(F)(F)F)ccc1Cl (single isomer, unassigned) [Compound 226, 3-chloro-N-[(3-chloro-2-fluorophenyl)(4,4-difluoro-1-hydroxycyclohexyl)methyl]-6-(trifluoromethyl)pyridine-2-carboxamide] | 1300 nM
10 | CCn1cc(-c2cccc(C(NC(=O)c3cc(Cl)ccc3Cl)C3(O)CCC(F)(F)CC3)c2)cn1 (stereo not shown) [Compound 127, 2,5-dichloro-N-{(4,4-difluoro-1-hydroxycyclohexyl)[3-(1-ethyl-1H-pyrazol-4-yl)phenyl]methyl}benzamide] | 660 nM

Next, values leading:

Row | IC50 | SMILES
11 | 80 nM | O=C(NC(c1cccc(-c2cccnc2)c1)C1(O)CCCCC1)c1nccc(C(F)(F)F)c1Cl (stereo not shown) [Compound 26, 3-chloro-N-{(hydroxycyclohexyl)[3-(pyridin-3-yl)phenyl]methyl}-4-(trifluoromethyl)pyridine-2-carboxamide]
12 | 240 nM | Cc1cccc(C(NC(=O)c2nccc(C(F)(F)F)c2Cl)C2(O)CCCC2)c1 (single isomer, unassigned) [Compound 56, 3-chloro-N-[(1-hydroxycyclopentyl)(3-methylphenyl)methyl]-4-(trifluoromethyl)pyridine-2-carboxamide]
13 | 1500 nM | O=C(NC(c1cncc(Cl)c1)[C@]1(O)CC[C@@H](F)CC1)c1nccc(C(F)(F)F)c1Cl (single isomer, unassigned) [Compound 243, 3-chloro-N-[(5-chloropyridin-3-yl)(cis-4-fluoro-1-hydroxycyclohexyl)methyl]-4-(trifluoromethyl)pyridine-2-carboxamide]
14 | 390 nM | O=C(NC(c1ccccc1F)[C@]1(O)CC[C@@H](F)CC1)c1nccc(C(F)(F)F)c1Cl (single isomer, unassigned) [Compound 239, 3-chloro-N-[(cis-4-fluoro-1-hydroxycyclohexyl)(2-fluorophenyl)methyl]-4-(trifluoromethyl)pyridine-2-carboxamide]
15 | 1500 nM | O=C(N[C@H](c1cccc(Br)c1)[C@]1(O)CC[C@H](F)CC1)c1nccc(C(F)(F)F)c1Cl [Compound 101, N-[(R)-(3-bromophenyl)(trans-4-fluoro-1-hydroxycyclohexyl)methyl]-3-hcloro-4-(trifluoromethyl)pyridine-2-carboxamide]
16 | 920 nM | O=C(NC(c1cccc(CO)c1)C1(O)CCCC1)c1nccc(C(F)(F)F)c1Cl (stereo not shown) [Compound 104, 3-chloro-N-{(1-hydroxycyclopentyl)[3-(hydroxymethyl)phenyl]methyl}-4-(trifluoromethyl)pyridine-2-carboxamide]
17 | 250 nM | O=C(NC(c1cccc(F)c1)C1(O)CCC(F)(F)CC1)c1nccc(C(F)(F)F)c1Cl (single isomer, unassigned) [Compound 76, 3-chloro-N-[(4,4-difluoro-1-hydroxycyclohexyl)(3-fluorophenyl)methyl]-4-(trifluoromethyl)pyridine-2-carboxamide]
18 | 53 nM | O=C(NC(c1ccccc1Cl)[C@]1(O)CC[C@@H](F)CC1)c1nccc(C(F)(F)F)c1Cl (single isomer, unassigned) [Compound 197, 3-chloro-N-[(2-chlorophenyl)(cis-4-fluoro-1-hydroxycyclohexyl)methyl]-4-(trifluoromethyl)pyridine-2-carboxamide]
19 | 150 nM | O=C(NC(c1cccc(F)c1Cl)[C@]1(O)CC[C@@H](F)CC1)c1cc(C(F)(F)F)ncc1Cl (single isomer, unassigned) [Compound 280, 5-chloro-N-[(2-chloro-3-fluorophenyl)(cis-4-fluoro-1-hydroxycyclohexyl)methyl]-2-(trifluoromethyl)pyridine-4-carboxamide]
20 | 65 nM | O=C(NC(c1cc(Cl)ccc1Cl)C1(O)CCCC1)c1nccc(C(F)(F)F)c1Cl (single isomer, unassigned) [Compound 114, 3-chloro-N-[(2,5-dichlorophenyl)(1-hydroxycyclopentyl)methyl]-4-(trifluoromethyl)pyridine-2-carboxamide]
21 | 3000 nM | O=C(NC(c1ccnc(Cl)c1)[C@]1(O)CC[C@@H](F)CC1)c1nccc(C(F)(F)F)c1Cl (single isomer, unassigned) [Compound 258]
22 | 69 nM | O=C(NC(c1cccc(-c2cccnc2)c1)C1(O)CCCC1)c1nccc(C(F)(F)F)c1Cl (single isomer, unassigned) [Compound 25, 3-chloro-N-{(1-hydroxycylcopentyl)[3-(pyridin-3-yl)phenyl]methyl}-4-(trifluoromethyl)pyridine-2-carboxamide]
23 | 20 nM | O=C(NC(c1cccc(-c2cccnc2)c1)C1(O)CCCCC1)c1nccc(C(F)(F)F)c1Cl (single isomer, unassigned) [Compound 28, 3-chloro-N-{(1-hydroxycyclohexyl)[3-(pyridin-3-yl)phenyl]methyl}-4-(trifluoromethyl)pyridine-2-carboxamide]
24 | 240 nM | O=C(NC(c1ncccc1Cl)C1(O)CCC(F)(F)CC1)c1nccc(C(F)(F)F)c1Cl (single isomer, unassigned) [Compound 318, 3-chloro-N-[(3-chloropyridin-2-yl)(4,4-difluoro-1-hydroxycyclohexyl)methyl]-4-(trifluoromethyl)pyridine-2-carboxamide]
25 | 120 nM | O=C(NC(c1cccc(F)c1F)C1(O)CCC(F)(F)CC1)c1nccc(C(F)(F)F)c1Cl (single isomer, unassigned) [Compound 164, 3-chloro-N-[(4,4-difluoro-1-hydroxycyclohexyl)(2,3-difluorophenyl)methyl]-4-(trifluoromethyl)pyridine-2-carboxamide]
